What all share (assay type): physicochemical
The nature of series [1]: Sublimation test (cold finger, HPLC quantification of sublimate). The conditions noted are these: for Sublimation (result in words): conditions of the sublimation test, non-sublimating = less than 1% in 72 hours at 150 mBar, 60° C.; for Sublimate: drug substance, Pressure: 150 mbar, Test period: 72 hrs. From the text: The property of sublimation can be observed and quantified with known methods to measure sublimation. For example, sublimation can be measured in an apparatus with a chamber in which the test compound is placed in its solid state and maintained in that state by controlled temperature. The gas phase in the chamber, optionally under low pressure, can be analyzed for content of test compound. It is also possible to continuously clear the test compound in the gas phase from the chamber either by a continuous renewal stream of a gas or by creating a sink for the test compound out of the gas phase, for example by a cold surface. The amount of material collected from sublimation or escaped from the sample by sublimation can be analyzed. The degree of sublimation is expressed as the fraction (as percentage) of the initial sample size.
The term ‘non-sublimating’ salt is defined to be a salt of S- or R-mirtazapine, from which less than 1% of the mirtazapine is sublimating from the sample, calculated on the basis of the amount of the base, when a sample of approximately 10 mg (for example an amount between 8-12 mg) is placed for the duration of 72 hours under standard conditions of 150 mBar pressure and 60° C. temperature.
Figure: Schematic presentation of the sublimation test equipment. A sample is placed on the bottom of a vessel, which is closed at the top by a vessel-shaped stopper into which cooling liquid (CL) is circulating and which vessel has an outlet connected to a vacuum pump (Vac). The vessel is placed in a closed chamber under constant temperature control (TC). A sublimate (Subl) can accumulate against the surface of the stopper within the vessel.
A sample (approximately 10 mg) was placed in a sample chamber of sublimation test equipment as illustrated in FIG. 1. The temperature in the sample chamber is controllable. The sample holder has a reduced pressure, which was 150 mBar by default. The sample chamber also consists of a section with reduced temperature (the “cold finger”), where the temperature is approximately 5° C. The majority of material that sublimates in the test sample with high temperature will precipitate on the cold finger. The amount of material on the cold finger after a test period of 72 hrs has been quantified using HPLC analysis. The degree of sublimation is expressed as the fraction material on the cold finger (as percentage) of the initial sample size. Additionally, the sublimation of active compound from tablets “drug product” has been tested.

Series [2] in a line: Sublimation observations outside the standard test.
A short description of series [3]: Hygroscopicity (dynamic vapor sorption / water uptake from air). The conditions noted are these: for Hygroscopicity / affinity for water: environmental air, ambient conditions, method not stated; for Hygroscopicity: dynamic vapor sorption measurement. The procedure:
To a solution of 3.01 g of S-mirtazapine in 5 ml of methanol was added at room temperature a solution of 1290 μl of hydrobromic acid in 20 ml of ethyl acetate. […] The mixture was cooled to 0° C. whereupon crystallization started. The white crystals were collected by filtration and were dried in a vacuum oven at 40° C. […] A water free drug substance sample attracts water when it comes in contact with environmental air, while it may loose water upon drying.

Setting [4] is: Temperature: 60° C., DL = level of detection.

Several values for one entry are separate records, joined by “and”; a condition that tells them apart may be missing. Equal entries are not always repeated.

Take `CN1CCN2c3ncccc3Cc3ccccc3C2C1.O=C(O)C(F)(F)F` (stereo not drawn) [S-mirtazapine trifluoroacetic acid salt]: the “Sublimation (result in words)” value was “showed sublimation” in series [1] (listed as trifluoroacetic acid salt of S- or R-mirtazapine, trifluoroacetic acid salt) and “not a non-sublimating salt” in series [1] (trifluoroacetic acid salt).
For `CN1CCN2c3ncccc3Cc3ccccc3[C@H]2C1` [S-mirtazapine, 1,2,3,4,10,14b-hexahydro-2-methyl-pyrazino[2,1-a]pyrido[2,3-c][2]benzazepine, reference compound], in series [2] (ambient temperature), the “Sublimation at ambient temperature” value is “slowly sublimating”. In addition, in series [1], the “Sublimation (result in words)” value was “sublimates at the conditions used”. The Sublimate was 0.75% in series [1] (Temperature: 40° C., fraction of initial sample on cold finger, listed as S-mirtazapine Batch E); 0.88% in series [1] (Temperature: 40° C., fraction of initial sample on cold finger, listed as S-mirtazapine Batch J); 5.32% and 2.22% in series [1] (Temperature: 60° C., DL = level of detection, listed as S-mirtazapine Batch E); 4.29% in series [1] (Temperature: 60° C., DL = level of detection, listed as S-mirtazapine Batch J).
In the case of `Br.CN1CCN2c3ncccc3Cc3ccccc3[C@H]2C1` [S-mirtazapine•HBr, S-mirtazapine hydrobromic acid salt], the “Hygroscopicity / affinity for water” value in series [3] was “forms a monohydrate under ambient conditions”. In series [1], the “Sublimation (result in words)” value is on record as “do not sublimate”.
Regarding `CN1CCN2c3ncccc3Cc3ccccc3[C@H]2C1.Cl` [S-mirtazapine•HCl, S-mirtazapine hydrochloric acid salt], the Hygroscopicity result in series [3] is “very hygroscopic”. Moreover, the “Temperature above which the compound starts to sublime” value in series [2] was “above 170 °C”. For the same compound, the Sublimate in series [1] (setting [4]) came out at 0.2%.
In the case of `CN1CCN2c3ncccc3Cc3ccccc3[C@H]2C1.O=C(O)/C=C/C(=O)O` [S-mirtazapine•fumaric acid, S-mirtazapine fumaric acid salt], in series [3], the “Hygroscopicity / affinity for water” value is reported as “attracts water from environmental air to form a hydrate”. The “Sublimation (result in words)” value in series [1] was “do not sublimate”.
For `CN1CCN2c3ncccc3Cc3ccccc3[C@H]2C1.O=C(O)/C=C\C(=O)O` [S-mirtazapine•maleic acid, S-mirtazapine maleic acid salt], in series [3], the Hygroscopicity entry is “not hygroscopic” and the “Hygroscopicity / affinity for water” value is “not hygroscopic”. For the same compound, the “Sublimation (result in words)” value in series [1] was “do not sublimate”.
For `CN1CCN2c3ncccc3Cc3ccccc3C2C1.CS(=O)(=O)O` (stereo not drawn) [S-mirtazapine•methanesulfonic acid, S-mirtazapine methanesulfonic acid salt], in series [3], the “Hygroscopicity / affinity for water” value was “non-hygroscopicity”. In addition, the “Sublimation (result in words)” value in series [1] was “non-sublimation”. The Sublimate in series [1] (setting [4]) is 0.1% and 0.0%.

The values are drawn from patent US20070111993A1, “Pharmaceutical composition comprising a salt of mirtazapine” (AKZO NOBEL N.V., priority 2004, published 2007).
